Measured values reported in patent US20040157738A1, “Novel oxygen containing fused cyclic derivatives and herbicidal, desiccant and defoliate compositions containing them” (ISHIHARA SANGYO KAISHA, LTD., priority 2003, published 2004).

How the values were obtained:
Assay type in all cases: in vivo
[1] = test system: rice (Oryza sativa L.: ORYSA); test: Test Example 3: water application herbicidal activity, paddy (growth controlling degree); conditions: rate 63 g a.i./ha, paddy pot, rice of 2 leaf stage transplanted, treated on the 4th day after transplantation; for pest or weed control at 63 g/ha: Oryza sativa, 504 h
Text: (§1) Paddy field soil was put into a {fraction (1/1,000,000)} ha pot, and seeds of barnyardgrass (Echinochloa oryzicola: ECHOR) and japanese bulrush (Scirpus juncoides: SCPJO) were sown and slightly covered with soil. Then the pot was left to stand still in a greenhouse in a state where the depth of flooding water was from 0.5 to 1 cm, and one day later, tubers of japanese ribbon wapato (Sagittaria pygmaea: SAGPY) were planted. Thereafter, the depth of flooding water was maintained at a level of from 3 to 4 cm, and when barnyardgrass and japanese bulrush reached a 0.5 leaf stage, an aqueous diluted solution of a wettable powder or emulsifiable concentrate having the compound of the present invention formulated in accordance with a usual formulation method, was uniformly applied under submerged condition by a pipette so that the dose of the active ingredient would be at a predetermined level. On the other hand, paddy filed soil was put into a {fraction (1/1,000,000)} ha pot and puddled and leveled, and the depth of flooding water was from 3 to 4 cm. One day later, rice (Oryza sativa L.: ORYSA) of 2 leaf stage was transplanted in a depth of 3 cm. On the 4th day after the transplantation, the compound of the present invention was applied in the same manner as described above. On the 14th day after the application of the herbicide, the growth of barnyardgrass, japanese burlush and japanese ribbon wapato was visually observed and on the 21st day after the application of the herbicide, the growth of rice was visually observed, and the herbicidal effects were evaluated by growth controlling degrees (%) ranging from 0 (equivalent to the untreated control) to 100 (complete kill), whereby the results shown in Table 13, were obtained. Compound Nos. in Table 13 correspond to Compound Nos. in Table 1 to 7 given hereinbefore.

[2] = test system: japanese bulrush (Scirpus juncoides: SCPJO); test: as above; conditions: rate 63 g a.i./ha, water application under submerged condition, paddy pot, japanese bulrush at 0.5 leaf stage; for pest or weed control at 63 g/ha: Schoenoplectiella juncoides, 336 h
Text: as §1

[3] = test system: barnyardgrass (Echinochloa oryzicola: ECHOR); test: as above; conditions: rate 63 g a.i./ha, water application under submerged condition, paddy pot, barnyardgrass at 0.5 leaf stage; for pest or weed control at 63 g/ha: Echinochloa oryzicola, 336 h
Text: as §1

[4] = test system: japanese ribbon wapato (Sagittaria pygmaea: SAGPY); test: as above; conditions: rate 63 g a.i./ha; water application under submerged condition, paddy pot; tubers of japanese ribbon wapato planted
Text: as §1

[5] = test system: wheat (Triticum aestivum L.): TRZAX; test: Test Example 1: pre-emergence herbicidal activity (growth controlling degree); conditions: 20th to 21st day after application
Summary of the method: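 Plants were sown in pots of upland field soil and treated the following day with a water-diluted formulation (500 L/ha) by small sprayer before emergence. Herbicidal effect is given as percent growth control judged by eye 20 to 21 days later.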

[6] = test system: wheat (Triticum aestivum L.), TRZAX; test: Test Example 2: post-emergence (foliage treatment) herbicidal activity (growth controlling degree); conditions: 2.8 leaf stage
Summary of the method: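 Herbicidal effect is rated by eye as growth control from 0 (like untreated plants) to 100 (plants killed). Compound, formulated as wettable powder or emulsifiable concentrate, is applied post-emergence to foliage in water at 500 L/ha with 0.1%(v/v) spreader.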

| Structure (SMILES) | pest or weed control at 63 g/ha [1] [%] | pest or weed control at 63 g/ha [2] [%] | pest or weed control at 63 g/ha [3] [%] | Water Application Herbicidal Activity SAGPY (growth controlling degree) [4] [%] | growth controlling degree, TRZAX ([5]; 125 g a.i./ha) [%] | growth controlling degree, TRZAX ([6]; 63 g a.i./ha) [%] | growth controlling degree, TRZAX ([5]; 250 g a.i./ha) [%] | Water Application Herbicidal Activity ORYSA (growth controlling degree) [1] [%] | Water Application Herbicidal Activity SCPJO (growth controlling degree) [2] [%] | Water Application Herbicidal Activity ECHOR (growth controlling degree) [3] [%] | growth controlling degree, TRZAX ([6]; 31 g a.i./ha) [%] |
| --- | --- | --- | --- | --- | --- | --- | --- | --- | --- | --- | --- |
| Cn1nc(-c2c(F)cc(Cl)c3c2CCCO3)c(Cl)c1OC(F)F [Compound 1-33, 4-chloro-3-(8-chloro-6-fluoro-3,4-dihydro-2H-1-benzopyran-5-yl)-5-(difluoromethoxy)-1-methyl-1H-pyrazole] | 80 | 100 | 100 | 100 | 70 | 98 | – | – | – | – | – |
| Cn1nc(-c2c(F)cc(Cl)c3c2CCC(c2ccccc2)O3)c(Cl)c1OC(F)F (stereo not shown) [Compound 1-42] | 35 | 98 | 100 | 100 | – | – | 0 | – | – | – | – |
| Fc1cc(Cl)c2c(c1-c1nn3c(c1Cl)CCCC3)CCCO2 [Compound 1-79, 3-chloro-2-(8-chloro-6-fluoro-3,4-dihydro-2H-1-benzopyran-5-yl)-4,5,6,7-tetrahydro-pyrazolo[1,5-a]pyridine] | 40 | 100 | 100 | 100 | – | – | 10 | – | – | – | – |
| CC1CCc2c(c(Cl)cc(F)c2-c2nn(C)c(C(F)(F)F)c2Cl)O1 (stereo not shown) [Compound 1-8] | 10 | 60 | 60 | 40 | – | – | – | – | – | – | – |
| Cn1nc(-c2c(F)cc(Cl)c3c2CCCO3)c(Cl)c1C(F)(F)F [Compound 1-2, 4-chloro-3-(8-chloro-6-fluoro-3,4-dihydro-2H-1-benzopyran-5-yl)-1-methyl-5-(trifluoromethyl)-1H-pyrazole] | 20 | 30 | 40 | 0 | – | 30 | – | – | – | – | – |
| Fc1cc(Cl)c2c(c1-c1ncc(C(F)(F)F)cc1Cl)CCCO2 [Compound 7-2, 3-chloro-2-(8-chloro-6-fluoro-3,4-dihydro-2H-1-benzopyran-5-yl)-5-(trifluoromethyl)-pyridine] | 0 | 98 | 100 | – | – | – | 50 | – | – | – | – |
| CCCCCC1CCc2c(c(Cl)cc(F)c2-c2nn(C)c(OC(F)F)c2Cl)O1 (stereo not shown) [Compound 1-101] | – | – | – | 100 | 20 | – | – | 35 | 50 | 100 | 30 |
| CC1CCc2c(c(Cl)cc(F)c2-c2nn3c(c2Cl)CCCC3)O1 (stereo not shown) [Compound 1-85] | – | – | – | 100 | – | – | – | 10 | 98 | 100 | – |
| CC1CCc2c(c(Cl)cc(F)c2-c2nn(C)c(OC(F)F)c2Cl)O1 (stereo not shown) [Compound 1-39] | 60 | 100 | 100 | 100 | – | – | – | – | – | – | – |
